From patent publication US10870647B2, “Imidazopyridine derivative, method for preparing same, and pharmaceutical composition containing same as active ingredient for preventing or treating cancer” (DAEGU-GYEONGBUK MEDICAL INNOVATION FOUNDATION, priority 2016, dated 2020)

Tests used:
[1] = biological target: T1, scanMAX Kinase assay panel (Homo sapiens, UniProt P36896); test: Kinase selectivity, scanMAX Kinase assay panel (DiscoverX), % control at 1 uM; type: binding; settings: ACVR1B; 1 uM; read-out: Percent Control (%)
T1 construct: purchased DiscoverX
T1 sequence (P36896 24-505): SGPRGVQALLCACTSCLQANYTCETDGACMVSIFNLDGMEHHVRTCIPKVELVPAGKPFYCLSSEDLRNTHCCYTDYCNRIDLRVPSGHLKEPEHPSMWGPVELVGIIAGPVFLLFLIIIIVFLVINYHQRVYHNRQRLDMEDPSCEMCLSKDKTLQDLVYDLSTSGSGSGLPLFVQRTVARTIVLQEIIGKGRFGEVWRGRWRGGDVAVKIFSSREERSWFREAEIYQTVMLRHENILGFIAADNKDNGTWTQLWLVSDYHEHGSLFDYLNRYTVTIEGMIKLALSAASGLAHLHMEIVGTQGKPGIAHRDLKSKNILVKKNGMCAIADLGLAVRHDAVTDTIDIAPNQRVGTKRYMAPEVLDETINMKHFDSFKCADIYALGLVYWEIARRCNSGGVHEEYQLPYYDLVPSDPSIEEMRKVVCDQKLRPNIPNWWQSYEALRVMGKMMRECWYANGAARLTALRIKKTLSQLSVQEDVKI
Procedure, shortened: (§1)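 Read-out is percent of control, derived from the signal with compound relative to positive and negative controls: (compound − positive)/(negative − positive) × 100. Each enzyme received test drug at 1 uM in DMSO, and values under 35% count as active.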

[2] = biological target: T2, scanMAX Kinase assay panel (Homo sapiens, UniProt Q56UN5); test: as above; type: binding; settings: YSK4; 1 uM; read-out: Percent Control (%)
T2 construct: purchased DiscoverX
T2 sequence (Q56UN5 1-1328): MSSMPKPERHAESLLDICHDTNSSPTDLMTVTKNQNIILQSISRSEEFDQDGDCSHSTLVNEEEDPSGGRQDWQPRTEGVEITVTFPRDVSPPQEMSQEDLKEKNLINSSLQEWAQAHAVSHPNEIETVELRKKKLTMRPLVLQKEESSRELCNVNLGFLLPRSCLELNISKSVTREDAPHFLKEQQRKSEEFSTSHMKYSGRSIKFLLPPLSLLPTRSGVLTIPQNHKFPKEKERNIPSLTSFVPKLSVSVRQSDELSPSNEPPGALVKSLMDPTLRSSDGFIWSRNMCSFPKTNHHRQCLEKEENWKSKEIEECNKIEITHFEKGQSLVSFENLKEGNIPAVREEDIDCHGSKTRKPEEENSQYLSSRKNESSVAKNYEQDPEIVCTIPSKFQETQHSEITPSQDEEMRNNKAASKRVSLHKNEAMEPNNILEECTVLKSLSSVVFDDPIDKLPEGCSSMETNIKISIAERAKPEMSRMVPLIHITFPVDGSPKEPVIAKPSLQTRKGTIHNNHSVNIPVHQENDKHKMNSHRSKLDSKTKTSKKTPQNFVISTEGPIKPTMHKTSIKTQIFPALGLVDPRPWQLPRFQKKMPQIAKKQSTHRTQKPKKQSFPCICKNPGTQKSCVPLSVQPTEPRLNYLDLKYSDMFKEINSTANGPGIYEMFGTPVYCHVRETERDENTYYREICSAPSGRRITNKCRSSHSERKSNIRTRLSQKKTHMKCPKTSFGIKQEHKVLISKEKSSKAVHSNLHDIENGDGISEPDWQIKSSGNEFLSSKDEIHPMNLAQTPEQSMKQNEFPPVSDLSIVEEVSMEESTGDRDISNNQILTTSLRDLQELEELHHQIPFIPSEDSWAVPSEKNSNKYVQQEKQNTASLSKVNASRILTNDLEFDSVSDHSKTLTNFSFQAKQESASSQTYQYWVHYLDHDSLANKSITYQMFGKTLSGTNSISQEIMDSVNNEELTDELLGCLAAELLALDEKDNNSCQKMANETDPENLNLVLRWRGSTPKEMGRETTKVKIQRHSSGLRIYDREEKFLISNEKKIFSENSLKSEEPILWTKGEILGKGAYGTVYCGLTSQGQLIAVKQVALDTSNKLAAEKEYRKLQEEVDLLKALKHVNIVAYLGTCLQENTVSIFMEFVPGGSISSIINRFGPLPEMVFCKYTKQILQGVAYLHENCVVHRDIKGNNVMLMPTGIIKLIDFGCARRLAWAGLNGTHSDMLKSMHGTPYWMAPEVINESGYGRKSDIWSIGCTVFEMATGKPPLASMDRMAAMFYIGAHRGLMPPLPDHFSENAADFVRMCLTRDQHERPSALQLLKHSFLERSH
Procedure, shortened: as §1

Row | SMILES | remaining binding at 1 µM [1] | remaining binding at 1 µM [2]
1 | Cc1ccc(C(=O)Nc2ccc(CN3CCN(C)CC3)c(C(F)(F)F)c2)cc1C#Cc1cnc2c(Nc3cnn(C)c3)cccn12 [Example 1, 4-methyl-3-((8-((1-methyl-1H-pyrazol-4-yl)amino)imidazo[1,2-a]pyridin-3-yl)ethynyl)-N-(4-((4-methylpiperazin-1-yl)methyl)-3-(trifluoromethyl)phenyl)benzamide] | 89% | 2%
2 | Cc1cn(-c2cc(NC(=O)c3ccc(C)c(C#Cc4cnc5c(Nc6cnn(C)c6)cccn45)c3)cc(C(F)(F)F)c2)cn1 [Example 12, 4-methyl-N-(3-(4-methyl-1H-imidazol-1-yl)-5-(trifluoromethyl)phenyl)-3-((8-((1-methyl-1H-pyrazol-4-yl)amino)imidazo[1,2-a]pyridin-3-yl)ethynyl)benzamide] | 94% | 2%
3 | Cc1ccc(NC(=O)C2(C(=O)Nc3ccc(F)cc3)CC2)cc1C#Cc1cnc2c(Nc3cnn(C(C)C)c3)cccn12 [Example 78] | 100% | 71%
